Key:
[1] = study in which nine of 10 patients had disease progression with prior immunotherapy; cited from earlier work
urothelial cancer = assay: Best response to prior therapy before study enrolment per investigator assessment; type: in vivo, human; conditions: first-line, across all regimens
From the text: Across all regimens, 184 patients had received first-line platinum-based chemotherapy, 83 had received second-line chemotherapy, and 24 had received third-line chemotherapy before study enrolment.

Row | Compound | Patients who responded to rogaratinib [1] [%] | Best ORR per investigator assessment to prior chemotherapy (urothelial cancer) [%]
1 | COCc1c(-c2cc3cc(C)cc(OC)c3s2)c2c(N)ncnn2c1CN1CCNC(=O)C1 [rogaratinib] | 30 | –
2 | gemcitabine plus cisplatin | – | 35

Source: patent US20220175768A1, “FGFR TYROSINE KINASE INHIBITORS FOR THE TREATMENT OF UROTHELIAL CARCINOMA” (Janssen Pharmaceutica NV, priority 2019, published 2022)
